Tested on: A549 cells
Assay: Cellular proliferation/cytotoxicity assay (Alamar Blue), A549 cells
Conditions: Homo sapiens, A549, 72 h, read-out: Anti-proliferative/Cytotoxic activity (A549 cells)
Experimental: The anti-proliferative activity of the compounds as described herein, is evaluated using the OvCAR3, HCT116 and A549 cell lines and the Alamar Blue (Resazurin) cell viability assay (O'Brien et al. Eur J Biochem 267, 5421-5426, 2000). Resazurin is reduced to the fluorescent resorufin by cellular dehydrogenase activity, correlating with viable, proliferating cells. Test compounds are dissolved as 10 mM solutions in DMSO and subsequently diluted. Cells like HCT116 or A549 cells were seeded into 96 well flat bottom plates at a density of 10000 cells/well (OvCAR3 cells), 1000 cells/well (HCT116 cells) or 2000 cells/well (A549 cells) in a volume of 200 μl/well. 24 hours after seeding, 1 μl each of the compound dilutions are added into each well of the 96 well plates. Each compound dilution is tested as at least as duplicates. Wells containing untreated control cells were filled with 200 μl DMEM (Dulbecco's Modified Eagle Medium) containing 0.5 vol % v:v DMSO. The cells are then incubated with the substances for 72 h at 37° C. in a humidified atmosphere containing 5 vol % CO2. To determine the viability of the cells, 20 μl of a Resazurin solution (90 mg/l) are added. After 4 h incubation at 37° C., the fluorescence is measured by extinction at ? =544 nm and an emission of ? =590 nm (Wallac Victor2; Perkin Elmer, USA). For the calculation of the cell viability, the emission value from untreated cells is set as 100% viability and the fluorescence intensity of treated cells are set in relation to the values of untreated cells. Viabilities are expressed as % values. The corresponding IC50 values of the compounds for cytotoxic activity are determined from the concentration-effect curves by means of non-linear regression. The analysis of the data is performed using a biostatistical program (Graph Pad Prism, USA).

Q: Which IC50 does the source give for Fc1ccc(-c2c(-c3ccc(CN4CCC(c5n[nH]c(-c6ccccn6)n5)CC4)cc3)nc3ccccn23)cc1 [Example 9, 3-(4-fluorophenyl)-2-(4-{[4-(5-pyridin-2-yl-1,2,4-triazol-3-yl)piperidin-1-yl]methyl}phenyl)imidazo[1,2-a]pyridine] here?
A: < 10 µM

Q: With c1ccc(-c2c(-c3ccc(CN4CCC(c5cc(-c6ccccn6)n[nH]5)CC4)cc3)nc3ncccn23)cc1 [Example 30, 3-phenyl-2-(4-{[4-(3-pyridin-2-yl-pyrazol-5-yl)piperidin-1-yl]methyl}phenyl)imidazo[1,2-a]pyrimidine] as the molecule, how does the IC50 read?
A: > 10 µM

Q: c1ccc(-c2nnc(C3CCN(Cc4ccc(-c5nc6ncccn6c5-c5ccccc5)cc4)CC3)[nH]2)cc1 [Example 121, 3-phenyl-2-(4-{[4-(5-phenyl-4H-1,2,4-triazol-3-yl)piperidin-1-yl]methyl}phenyl)imidazo[1,2-a]pyrimidine] was tested. Which IC50 did it give?
A: < 10 µM

Q: COc1ccc(-c2c(-c3ccc(CN4CCC(c5n[nH]c(-c6ccccn6)n5)CC4)cc3)nc3ccccn23)cc1 [Example 15, 3-(4-methoxyphenyl)-2-(4-{[4-(5-pyridin-2-yl-1,2,4-triazol-3-yl)piperidin-1-yl]methyl}phenyl)imidazo[1,2-a]pyridine] was tested. Which IC50 did it give?
A: < 10 µM

Q: Which IC50 does the source give for COc1ccc2nc(-c3ccc(CN4CCC(c5n[nH]c(-c6ccccn6)n5)CC4)cc3)c(-c3ccccc3)n2n1 [Example 32, 6-methoxy-3-phenyl-2-(4-{[4-(5-pyridin-2-yl-1,2,4-triazol-3-yl)piperidin-1-yl]methyl}phenyl)imidazo[1,2-b]pyridazine] here?
A: < 10 µM

Q: How did the IC50 turn out when c1ccc(-c2nc(C3CCN(Cc4ccc(-c5nc6ncccn6c5-c5nccs5)cc4)CC3)n[nH]2)nc1 [Example 39, 2-(4-{[4-(5-pyridin-2-yl-1,2,4-triazol-3-yl)piperidin-1-yl]methyl}phenyl)-3-(1,3-thiazol-2-yl)imidazo[1,2-a]pyrimidine] was run?
A: > 10 µM

Q: Cc1ccn2c(-c3ccccc3)c(-c3ccc(CN4CCC(c5n[nH]c(-c6ccccn6)n5)CC4)cc3)nc2n1 [Example 19, 7-methyl-3-phenyl-2-(4-{[4-(5-pyridin-2-yl-1,2,4-triazol-3-yl)piperidin-1-yl]methyl}phenyl)imidazo[1,2-a]pyrimidine] was tested. Which IC50 did it give?
A: < 10 µM

Q: How did the IC50 turn out when N#Cc1ccn2c(-c3ccccc3)c(-c3ccc(CN4CCC(c5n[nH]c(-c6ccccn6)n5)CC4)cc3)nc2c1 [Example 29, 3-phenyl-2-(4-{[4-(5-pyridin-2-yl-1,2,4-triazol-3-yl)piperidin-1-yl]methyl}phenyl)imidazo[1,2-a]pyridine-7-carbonitrile] was run?
A: > 10 µM

Q: Which IC50 does the source give for Brc1cccn2c(-c3ccccc3)c(-c3ccc(CN4CCC(c5n[nH]c(-c6ccccn6)n5)CC4)cc3)nc12 [Example 25, 8-bromo-3-phenyl-2-(4-{[4-(5-pyridin-2-yl-1,2,4-triazol-3-yl)piperidin-1-yl]methyl}phenyl)imidazo[1,2-a]pyridine] here?
A: < 10 µM

Q: With CCc1nn2c(-c3ccccc3)c(-c3ccc(CN4CCC(c5nnc(-c6ccccn6)[nH]5)CC4)cc3)nc2s1 [Example 51, 2-ethyl-5-phenyl-6-(4-{[4-(5-pyridin-2-yl-4H-1,2,4-triazol-3-yl)piperidin-1-yl]methyl}phenyl)imidazo[2,1-b][1,3,4]thiadiazole] as the molecule, how does the IC50 read?
A: < 10 µM

Q: For N#Cc1ccn2c(-c3ccccc3)c(-c3ccc(CN4CCC(c5nnc(-c6ccccc6)[nH]5)CC4)cc3)nc2c1 [Example 118, 3-phenyl-2-(4-{[4-(5-phenyl-4H-1,2,4-triazol-3-yl)piperidin-1-yl]methyl}phenyl)imidazo[1,2-a]pyridine-7-carbonitrile], which IC50 is on record?
A: < 10 µM

Q: With Clc1ccn2c(-c3ccccc3)c(-c3ccc(CN4CCC(c5nnc(-c6cccs6)[nH]5)CC4)cc3)nc2c1 [Example 103, 7-chloro-3-phenyl-2-[4-({4-[5-(2-thienyl)-4H-1,2,4-triazol-3-yl]piperidin-1-yl}methyl)phenyl]imidazo[1,2-a]pyridine] as the molecule, how does the IC50 read?
A: < 10 µM

Q: With c1ccc(-c2c(-c3ccc(CN4CCC(c5n[nH]c(-c6ccccn6)n5)CC4)cc3)nc3scnn23)cc1 [Example 11, 5-phenyl-6-(4-{[4-(5-pyridin-2-yl-1,2,4-triazol-3-yl)piperidin-1-yl]methyl}phenyl)imidazo[2,1-b][1,3,4]thiadiazole] as the molecule, how does the IC50 read?
A: < 10 µM

Same assay, conditions: read-out: Anti-proliferative/Cytotoxic activity (A549 cells); A549 cells, 72 h, Alamar Blue (Resazurin)

Q: Which IC50 does the source give for c1ccc(-c2c(-c3ccc(CN4CCC(c5nnc(-c6ccncc6)[nH]5)CC4)cc3)nc3sccn23)cc1 [Example 56, ′5-phenyl-6-(4-{[4-(5-pyridin-4-yl-4H-1,2,4-triazol-3-yl)piperidin-1-yl]methyl}phenyl)imidazo[2,1-b][1,3]thiazole] here?
A: < 10 µM

Q: For Cc1ccc2nc(-c3ccc(CN4CCC(c5nnc(-c6ccco6)[nH]5)CC4)cc3)c(-c3ccccc3)n2n1 [Example 92, ′2-[4-({4-[5-(2-furyl)-4H-1,2,4-triazol-3-yl]piperidin-1-yl}methyl)phenyl]-6-methyl-3-phenylimidazo[1,2-b]pyridazine], which IC50 is on record?
A: < 10 µM

Q: For O=C(O)c1cn2c(-c3ccccc3)c(-c3ccc(CN4CCC(c5nnc(-c6ccccn6)[nH]5)CC4)cc3)nc2s1 [Example 127, ′5-phenyl-6-(4-{[4-(5-pyridin-2-yl-4H-1,2,4-triazol-3-yl)piperidin-1-yl]methyl}phenyl)imidazo[2,1-b][1,3]thiazole-2-carboxylic acid], which IC50 is on record?
A: > 10 µM

Q: Which IC50 does the source give for N#Cc1ccn2c(-c3ccccc3)c(-c3ccc(CN4CCC(c5nnc(-c6ccccn6)[nH]5)CC4)cc3)nc2c1 [Example 114, ′3-phenyl-2-(4-{[4-(5-pyridin-2-yl-4H-1,2,4-triazol-3-yl)piperidin-1-yl]methyl}phenyl)imidazo[1,2-a]pyridine-7-carbonitrile] here?
A: < 10 µM

Q: For c1ccc(-c2c(-c3ccc(CN4CCC(c5nnc(-c6ncccn6)[nH]5)CC4)cc3)nc3scnn23)cc1 [Example 82, ′5-phenyl-6-(4-{[4-(5-pyrimidin-2-yl-4H-1,2,4-triazol-3-yl)piperidin-1-yl]methyl}phenyl)imidazo[2,1-b][1,3,4]thiadiazole], which IC50 is on record?
A: < 10 µM

Q: Clc1ccn2c(-c3ccccc3)c(-c3ccc(CN4CCC(c5nnc(-c6ccc[nH]6)[nH]5)CC4)cc3)nc2c1 [Example 107, ′7-chloro-3-phenyl-2-[4-({4-[5-(1H-pyrrol-2-yl)-4H-1,2,4-triazol-3-yl]piperidin-1-yl}methyl)phenyl]imidazo[1,2-a]pyridine] was tested. Which IC50 did it give?
A: < 10 µM

Q: How did the IC50 turn out when c1ccc(-c2c(-c3ccc(CN4CCC(c5noc(-c6ccccn6)n5)CC4)cc3)nc3ncccn23)cc1 [Example 116, ′3-phenyl-2-(4-{[4-(5-pyridin-2-yl-1,2,4-oxadiazol-3-yl)piperidin-1-yl]methyl}phenyl)imidazo[1,2-a]pyrimidine] was run?
A: < 10 µM

Q: For Cc1ccc(-c2nnc(C3CCN(Cc4ccc(-c5nc6ncccn6c5-c5ccccc5)cc4)CC3)[nH]2)nc1 [Example 70, ′2-[4-({4-[5-(5-methylpyridin-2-yl)-4H-1,2,4-triazol-3-yl]piperidin-1-yl}methyl)phenyl]-3-phenylimidazo[1,2-a]pyrimidine], which IC50 is on record?
A: < 10 µM

Q: For N#Cc1cccn2c(-c3ccccc3)c(-c3ccc(CN4CCC(c5nnc(-c6ccco6)[nH]5)CC4)cc3)nc12 [Example 90, ′2-[4-({4-[5-(2-furyl)-4H-1,2,4-triazol-3-yl]piperidin-1-yl}methyl)phenyl]-3-phenylimidazo[1,2-a]pyridine-8-carbonitrile], which IC50 is on record?
A: > 10 µM

Reference: patent publication US9387204B2, “Fused bicyclic imidazoles” (BAYER INTELLECTUAL PROPERTY GmbH, priority 2007, dated 2016)
